Where only a bound is given, the exact number is not on record here.

The melting point is the temperature of the solid-liquid transition. Turning to `Cn1ncc(C(=O)c2ccc(S(C)(=O)=O)c(C3=NOCC3)c2Cl)c1O` [3.35, 4-[2-Chloro-3-(4,5-dihydroisoxazol-3-yl)-4-methylsulfonyl-benzoyl]-5-hydroxy-1-methyl-1H-pyrazole], the melting point was greater than 250 °C.

These data come from US7608564B2, “3-heterocyclyl-substituted benzoyl derivatives” (BASF Aktiengesellschaft, priority 1997, dated 2009).
